Structures can show the parent of a compound that is named as a salt.
Test system: Malassezia globosa
Test: Anti-Malassezia test (viability of Malassezia, WST microbial viability assay)
Settings: for concentration required to inhibit the viability of Malassezia by 20%: 20% inhibition of viability; for viability at 1 µM / viability at 10 µM / viability at 100 µM: Malassezia globosa, 22 h, read-out: viability (%) of Malassezia, relative to negative control taken as 100; for anti-Malassezia effect compared with the positive control drugs: versus streptomycin sulfate, amorolfine hydrochloride, itraconazole
Description: The Malassezia strain was cultured in CHROMagar Malassezia/Candida prepared medium (Kanto Chemical Co., Ltd.).
In 1 L of distilled water were dissolved 10 g of D-glucose, 5 g of peptone, 3 g of yeast extract, 3 g of malt extract and 0.1 g of penicillin. The resulting solution was filtered and used for the experiments.
A suspension of Malassezia was prepared to an optical density equivalent to McFarland's Standard No. 3 and 0.5 mL of the suspension was added to tubes. Each of the prepared samples, oleic acid and the YM medium were mixed into the tubes, and Malassezia was cultured at 37° C. for 22 hours. The fungi were stained using Microbial viability assay kit-WST (Dojindo Laboratories) and cultured at 37° C. for 2 hours. The absorbance was measured to calculate the viability of Malassezia. The results are expressed as a percentage (%) relative to a negative control (“control”: with no addition of test substances) taken as 100. A lower percentage indicates a stronger anti-Malassezia effect. The values obtained in the experiments were expressed as the mean±S.E. The significance of the difference in the means between the test substance administration groups and the negative control group was tested by the Dunnett's test. The significance level was set at 5% or 1%.

SMILES | concentration required to inhibit the viability of Malassezia by 20% | viability at 1 µM | viability at 10 µM | viability at 100 µM | anti-Malassezia effect compared with the positive control drugs
CCC(C)n1ncn(-c2ccc(N3CCN(c4ccc(OCC5COC(Cn6cncn6)(c6ccc(Cl)cc6Cl)O5)cc4)CC3)cc2)c1=O (centres unmarked) [Itraconazole, itraconazole, reference compound] | about 10 μM |  |  |  | 
CC(=O)c1c(O)cc(O[C@@H]2OC(CO)[C@@H](O)C(O)C2O)c(O[C@@H]2OC(CO)[C@@H](O)C(O)C2O)c1O (some centres unmarked) [Compound 1, inermioside A] |  | 93.6% | 81.3% | 76.3% | comparable to or higher than that of the positive control drugs
C[C@@H]1O[C@@H](OC[C@H]2O[C@@H](Oc3cc(O)c4c(=O)cc(-c5ccc(O)cc5)oc4c3)[C@H](O)[C@@H](O)[C@@H]2O)[C@H](O)[C@H](O)[C@H]1O [Compound 2, apigenin 7-O-α-L-rhamnopyranosyl-(1→6)-β-D-glucopyranoside] |  | 83.6% | 81.4% | 61.5% | comparable to or higher than that of the positive control drugs
[H]/N=C(/N)N[C@H]1[C@H](O)[C@@H](O)[C@H](O[C@@H]2O[C@@H](C)[C@](O)(C=O)[C@H]2O[C@@H]2O[C@@H](CO)[C@H](O)[C@@H](O)[C@@H]2NC)[C@@H](N/C(N)=N\[H])[C@@H]1O [streptomycin sulfate, reference compound] | ≥ 137 µM |  | 106% |  | 
